Assay results taken from patent publication US10322129B2, “Therapeutic compositions containing dipyridamole, treatment packs and kits including such compositions and methods for producing same” (O.D. Ocular Discovery Ltd., priority 2015, dated 2019).
In brackets after ≈: the same amount, converted by molar mass.

Experiments:
[1] = dissolution in aqueous solution by adjusting the pH; assay type: physicochemical; details: pH of the aqueous solution adjusted to ~6.6 (6.5-6.7) or less
Source text: The natural pH of tear fluid is 7.4; however, discomfort for the user will not be felt as long as the pH of the administered medication stays in the range of 6.6-7.8 (Sampath Kumar et al., “Recent Challenges and Advances in Ophthalmic Drug Delivery System,” in The Pharma Innovation, Vol. 1, No. 4 (2012)). Others administer eye drops at a pH of 5.5 and find this pH to be optimal.

[2] = cited from earlier work
[3] = cited from earlier work; remark: listed apart in the source

- dissolution in the aqueous solution [1]: fully dissolves
Structure (SMILES): OCCN(CCO)c1nc(N2CCCCC2)c2nc(N(CCO)CCO)nc(N3CCCCC3)c2n1 [Dipyridamole, dipyridamole]
- water solubility ([2]; Meylan, W M ET AL. (1996)): 8.17 µg/mL (≈ 16.2 µM)
- solubility in water ([2]; water): practically insoluble
- solubility in methanol [3]: very soluble
